From PubChem BioAssay AID248 (DTP/NCI, 2004)
Inconclusive results and toxic doses are left out. No stated cut-off is given here; in the data, active means T/C of 150% or more; inactive means T/C below 125%.

Tested on: L1210 leukemia ip in BDF1 mice, survival T/C
Test: NCI In Vivo Anticancer Drug Screen. Data for tumor model L1210 Leukemia (intraperitoneal) in B6D2F1 (BDF1) mice
Settings: endpoint: mean survival time, higher = longer survival
How it was run: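 Value reflects the ratio of survival in compound-treated mice to survival in vehicle-treated controls, with both groups carrying the same transplanted tumor.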

[1] = dose: 50.0 mg/kg/injection, schedule: Q01DX009 (ip), vehicle: saline with Tween-80
[2] = dose: 100.0 mg/kg/injection, schedule: Q01DX009 (ip), vehicle: saline with Tween-80
[3] = dose: 100.0 mg/kg/injection, schedule: Q04DX003 (ip), vehicle: saline with Tween-80
[4] = dose: 200.0 mg/kg/injection, schedule: Q01DX009 (ip), vehicle: saline with Tween-80
[5] = dose: 200.0 mg/kg/injection, schedule: Q04DX003 (ip), vehicle: saline with Tween-80
[6] = dose: 100.0 mg/kg/injection, schedule: Q04DX003 (ip), vehicle: Klucel (hydroxypropylcellulose) (HPC)
[7] = dose: 200.0 mg/kg/injection, schedule: Q01DX009 (ip), vehicle: Klucel (hydroxypropylcellulose) (HPC)
[8] = dose: 200.0 mg/kg/injection, schedule: Q04DX003 (ip), vehicle: Klucel (hydroxypropylcellulose) (HPC)
[9] = dose: 400.0 mg/kg/injection, schedule: Q04DX003 (ip), vehicle: Klucel (hydroxypropylcellulose) (HPC)
[10] = dose: 100.0 mg/kg/injection, schedule: Q01DX001 (ip), vehicle: other
[11] = dose: 200.0 mg/kg/injection, schedule: Q01DX001 (ip), vehicle: other
[12] = dose: 400.0 mg/kg/injection, schedule: Q01DX001 (ip), vehicle: other
[13] = dose: 100.0 mg/kg/injection, schedule: Q04DX002 (ip), vehicle: Klucel (hydroxypropylcellulose) (HPC)
[14] = dose: 200.0 mg/kg/injection, schedule: Q04DX002 (ip), vehicle: Klucel (hydroxypropylcellulose) (HPC)
[15] = dose: 400.0 mg/kg/injection, schedule: Q04DX002 (ip), vehicle: Klucel (hydroxypropylcellulose) (HPC)
[16] = dose: 100.0 mg/kg/injection, schedule: Q01DX001 (ip), vehicle: saline
[17] = dose: 200.0 mg/kg/injection, schedule: Q01DX001 (ip), vehicle: saline
[18] = dose: 400.0 mg/kg/injection, schedule: Q01DX001 (ip), vehicle: saline
[19] = dose: 50.0 mg/kg/injection, schedule: Q01DX001 (ip), vehicle: saline

Measured: T/C

S=C([S-])[P+](C1CCCCC1)(C1CCCCC1)C1CCCCC1
inactive: [1] 97 % of control | [2] 97 % of control | [3] 97 % of control | [4] 97 % of control | [5] 87 % of control

COc1ccccc1NC(=O)Nc1c(C)cc(C)cc1C
inactive: [6] 95 % of control | [7] 90 % of control | [8] 88 % of control | dose: 400.0 mg/kg/injection, schedule: Q01DX009 (ip), vehicle: Klucel (hydroxypropylcellulose) (HPC) 95 % of control | [9] 91 % of control

CSc1nc(/N=N/Nc2nc(SC)nn2C)n(C)n1
inactive: dose: 100.0 mg/kg/injection, schedule: Q04DX002 (ip), vehicle: saline with Tween-80 93 % of control | dose: 200.0 mg/kg/injection, schedule: Q04DX002 (ip), vehicle: saline with Tween-80 93 % of control | dose: 400.0 mg/kg/injection, schedule: Q04DX002 (ip), vehicle: saline with Tween-80 97 % of control

O=[N+]([O-])/C(=C/C=C/c1ccccc1)c1ccccc1
inactive: dose: 50.0 mg/kg/injection, schedule: Q01DX009 (ip), vehicle: Klucel (hydroxypropylcellulose) (HPC) 96 % of control | dose: 100.0 mg/kg/injection, schedule: Q01DX009 (ip), vehicle: Klucel (hydroxypropylcellulose) (HPC) 89 % of control | [7] 86 % of control

CC(C)CN(CC(C)C)Cn1nnc2ccccc21
inactive: dose: 75.0 mg/kg/injection, schedule: Q01DX001 (ip), vehicle: carboxymethylcellulose (CMC) 100 % of control | dose: 150.0 mg/kg/injection, schedule: Q01DX001 (ip), vehicle: carboxymethylcellulose (CMC) 94 % of control | dose: 300.0 mg/kg/injection, schedule: Q01DX001 (ip), vehicle: carboxymethylcellulose (CMC) 108 % of control

CSC(=NC1CCCCC1)Nc1ccccc1
inactive: [10] 98 % of control | [11] 98 % of control | [12] 88 % of control

Nc1cccc2c1C(=O)c1cccc(Cl)c1C2=O
inactive: [3] 94 % of control | [5] 101 % of control | dose: 400.0 mg/kg/injection, schedule: Q04DX003 (ip), vehicle: saline with Tween-80 94 % of control

CC(C)Cc1cc(C#N)cc(C(C)(C)C)c1O
inactive: [13] 100 % of control | [14] 100 % of control | [15] 103 % of control

CCOC(=O)C(O)(C#CC(C)C)C1CCCCC1 (stereo unspecified)
inactive: [10] 94 % of control | [11] 89 % of control | [12] 94 % of control

O=S1(=O)c2ccccc2Oc2ccccc21
inactive: dose: 50.0 mg/kg/injection, schedule: Q01DX001 (ip), vehicle: other 93 % of control | [10] 93 % of control | [11] 100 % of control | [12] 96 % of control

CC1=NN(c2ccc(S(=O)(=O)O)cc2)C(=O)/C1=C/c1ccc(Cl)cc1Cl
inactive: [16] 110 % of control | [6] 105 % of control | [17] 96 % of control | [8] 97 % of control | [18] 104 % of control | [9] 94 % of control

CC(CN(C)C)CN1c2ccccc2Sc2ccc(C(F)(F)F)cc21 (stereo unspecified)
inactive: dose: 0.78 mg/kg/injection, schedule: Q04DX003 (ip), vehicle: saline 108 % of control | dose: 1.56 mg/kg/injection, schedule: Q01DX009 (ip), vehicle: saline 111 % of control | dose: 1.56 mg/kg/injection, schedule: Q04DX003 (ip), vehicle: saline 96 % of control | dose: 3.12 mg/kg/injection, schedule: Q01DX009 (ip), vehicle: saline 104 % of control | dose: 3.12 mg/kg/injection, schedule: Q04DX003 (ip), vehicle: saline 105 % of control | dose: 6.25 mg/kg/injection, schedule: Q01DX009 (ip), vehicle: saline 105 % of control | dose: 6.25 mg/kg/injection, schedule: Q04DX003 (ip), vehicle: saline 97 % of control | dose: 12.5 mg/kg/injection, schedule: Q01DX009 (ip), vehicle: saline 109 % of control | dose: 12.5 mg/kg/injection, schedule: Q04DX003 (ip), vehicle: saline 105 % of control | dose: 25.0 mg/kg/injection, schedule: Q04DX003 (ip), vehicle: saline 109 % of control

O=C1CCC(=O)N1
inactive: [6] 103 % of control | [8] 102 % of control | [9] 100 % of control

Cc1ccccc1C=O
inactive: [19] 97 % of control | [16] 94 % of control | [17] 94 % of control | [18] 94 % of control

Cc1ccc(C2C(C(=O)c3ccccc3)N2Cc2ccccc2)cc1 (stereo unspecified)
inactive: dose: 100.0 mg/kg/injection, schedule: Q01DX001 (ip), vehicle: Klucel (hydroxypropylcellulose) (HPC) 98 % of control | dose: 200.0 mg/kg/injection, schedule: Q01DX001 (ip), vehicle: Klucel (hydroxypropylcellulose) (HPC) 95 % of control

CC(=O)NS(=O)(=O)c1ccc(NC(=O)c2ccccc2C(=O)O)cc1
inactive: [1] 102 % of control | [2] 100 % of control | [3] 95 % of control | [4] 96 % of control | [5] 93 % of control

CN(C(=O)CCCc1ccc(N(CCCl)CCCl)cc1)c1ccccc1
inactive: dose: 2.0 mg/kg/injection, schedule: Q12HX018 (ip), vehicle: Klucel (hydroxypropylcellulose) (HPC) 100 % of control | dose: 4.0 mg/kg/injection, schedule: Q12HX018 (ip), vehicle: Klucel (hydroxypropylcellulose) (HPC) 96 % of control | dose: 8.0 mg/kg/injection, schedule: Q12HX018 (ip), vehicle: Klucel (hydroxypropylcellulose) (HPC) 107 % of control | dose: 8.0 mg/kg/injection, schedule: Q12HX018 (ip), vehicle: other 110 % of control | dose: 10.0 mg/kg/injection, schedule: Q12HX018 (ip), vehicle: other 101 % of control | dose: 12.0 mg/kg/injection, schedule: Q12HX018 (ip), vehicle: other 100 % of control

O=S(=O)(Nc1cc2c(nc3ccccn32)c2ccccc12)c1ccccc1
inactive: [19] 103 % of control

CNC(=O)NC1ON=C(c2ccccc2)C1C(=O)NC (stereo unspecified)
inactive: dose: 100.0 mg/kg/injection, schedule: Q01DX001 (ip), vehicle: saline with Tween-80 98 % of control | dose: 200.0 mg/kg/injection, schedule: Q01DX001 (ip), vehicle: saline with Tween-80 95 % of control

NC(N)=NC(N)=Nc1ccccc1
inactive: [13] 101 % of control | [14] 105 % of control | [15] 97 % of control

CC12CCC(=O)C=C1CCC1C2CCC2(C)C(C(=O)COC(=O)c3cc([N+](=O)[O-])c(N4CC4)c([N+](=O)[O-])c3)CCC12 (stereo unspecified)
inactive: dose: 50.0 mg/kg/injection, schedule: Q01DX001 (sc), vehicle: steriod suspending solution 95 % of control | dose: 60.0 mg/kg/injection, schedule: Q01DX015 (ip), vehicle: saline 88 % of control | dose: 90.0 mg/kg/injection, schedule: Q01DX015 (ip), vehicle: saline 86 % of control | dose: 100.0 mg/kg/injection, schedule: Q01DX001 (sc), vehicle: steriod suspending solution 106 % of control | dose: 135.0 mg/kg/injection, schedule: Q01DX015 (ip), vehicle: saline 88 % of control | dose: 200.0 mg/kg/injection, schedule: Q01DX001 (sc), vehicle: steriod suspending solution 97 % of control | dose: 200.0 mg/kg/injection, schedule: Q01DX015 (ip), vehicle: saline 91 % of control | dose: 400.0 mg/kg/injection, schedule: Q01DX001 (sc), vehicle: steriod suspending solution 101 % of control

COc1ccccc1P(c1ccccc1OC)c1ccccc1OC
inactive: dose: 100.0 mg/kg/injection, schedule: Q01DX009 (ip), vehicle: saline 95 % of control | dose: 100.0 mg/kg/injection, schedule: Q04DX003 (ip), vehicle: saline 113 % of control | dose: 200.0 mg/kg/injection, schedule: Q01DX009 (ip), vehicle: saline 92 % of control | dose: 200.0 mg/kg/injection, schedule: Q04DX003 (ip), vehicle: saline 102 % of control | dose: 400.0 mg/kg/injection, schedule: Q01DX009 (ip), vehicle: saline 98 % of control | dose: 400.0 mg/kg/injection, schedule: Q04DX003 (ip), vehicle: saline 101 % of control
